Measurements as given in patent US6184254A, “Methods of identifying modulators of perivascular sensory nerve Ca2+ receptors” (priority 1998, dated 2001).
Entries after “also recorded” stand apart in the source; their conditions may differ.

Tests used:
[1] = system: mesenteric resistance arteries; assay: Ca2+-induced relaxation of isolated mesenteric resistance arteries (wire myograph); set-up: species or system rat
Description: Branch I and II mesenteric resistance arteries, internal diameter […], are isolated from the mesenteric arcade of male Wistar rats and placed in ice cold physiologic salt solution (PSS) of the following composition in mM: NaCl, 130-140; KCl, 4.7; MgSO4.7H2 O, 1.17; NaHCO3, 5-15; KH2 PO4, 1.15 and Na2 HPO4, 1.10, CaCl2, 1.0; HEPES, 50; and glucose, 5, with a pH of 7.4 when gassed with 95% air, 5% CO2.
After cleaning of fat and connective tissue, the arterial segments are denuded of endothelium by rubbing a human hair in and out of the lumen. The vessel segments are then mounted between a force transducer and translation stage of a wire myograph using tungsten wire and the PSS is warmed to 37° C. and gassed with 95% air, 5% CO2 to provide a pH of 7.4. The vessel segments are then stretched to a length which is equivalent to an internal diameter of […] and allowed to equilibrate for 30 minutes. […]
Mesenteric resistance artery segments are isolated from sham treated and denervated rats and prepared for measurement of isometric force generation using the wire myograph system. […] For each vessel, the maximal level of relaxation is recorded and used for comparisons. At the end of the protocol, the ability of the vessel to relax in response to addition of sodium nitroprusside (SNP) is assessed to determine the ability to relax in response to a non-neural stimulus. […]

[2] = system: renal artery segment pre-contracted with norepinephrine; assay: Superfusion bioassay with renal artery segment; set-up: species or system rat
Description: The renal artery used as the bioassay segment was isolated and mounted between a fixed support and a force transducer and the lack of response to addition of Ca^2+ was verified (FIG. 9A). The bioassay segment was then superfused with PSS that was allowed to drip across a mesenteric arcade attached to PE-10 tubing; the cut ends of the arcade were tied with suture material to prevent egress of endothelium-derived factors. […] To further examine the possibility that a diffusible substance was released from the mesenteric arcade in response to 5 mM Ca^2+, the superfusate was collected and stored on ice for approximately 45 minutes. The bioassay segment was then returned to the organ chamber, recontracted with norepinephrine and the response to Ca^2+ and to the collected superfusate were assessed.

[3] = system: mesenteric resistance arteries; assay: Isometric force/active stress of Ca2+-depleted mesenteric resistance arteries; set-up: species or system Wistar rat
Experimental: In the course of studies designed to examine the hypothesis that the Ca^2+ force relationship of resistance arteries is altered in genetically hypertensive rats, it was discovered that physiologic concentrations of extracellular Ca^2+ affected the repeated contraction elicited by norepinephrine in Ca^2+ -free medium.
(§1) Mesenteric resistance arteries were isolated from Wistar rats; and intracellular Ca^2+ and isometric force were measured using a fura-based method and w ire myography (Bian, et aL, 1995b). Vessels were depleted of releasable Ca^2+ by repeated contraction with norepinephrine; and extracellular Ca^2+ was then cumulatively added back from 0.025-2.5 mmol/L in the presence of a n agonist. […] It was concluded that extracellular Ca^2+ limits force generation by depressing myofilament Ca^2+ sensitivity and decreasing intracellular Ca^2+ secondary to activation of a Ca^2+ -sensitive K^+ channel.

[4] = system: intracellular Ca^2+ of mesenteric resistance arteries; assay: Intracellular Ca2+ (fura-based) of mesenteric resistance arteries; set-up: species or system Wistar rat; conditions: 1.6 and 2.5 mmol/L Ca2+
Experimental: as §1

[5] = system: mesenteric resistance arteries of SHR and WKY; assay: Response to norepinephrine of SHR and WKY mesenteric resistance arteries at different extracellular Ca2+; set-up: species or system rat (SHR and WKY); conditions: 1.5 and 2.5 vs 1.25 mmol/L Ca2+, both strains
Experimental: In an initial series of experiments the isometric force response of mesenteric resistance arteries of SHR and WKY was assessed to cumulative addition of norepinephrine in the presence of 1.25, 1.5 and 2.5 mmol/L extracellular Ca^2+ (Li, J., et al., 1993).

[6] = system: mesenteric resistance arteries; conditions: cited from earlier work
blood pressure [7] = conditions: SHR; cited from earlier work
blood pressure [8] = conditions: cited from earlier work
rat tail arteries = conditions: raising Ca2+ from 4.1 to 20.1 mmol/L; cited from earlier work
rat aorta = conditions: cited from earlier work
cremaster arterioles = conditions: Ca2+ 0 to 5.1 mM; cited from earlier work
mammalian arteries = conditions: slightly supraphysiologic concentrations; cited from earlier work
aorta = conditions: high extracellular Ca2+; cited from earlier work
[9] = system: Ca^2+-induced relaxation of mesenteric resistance arteries; assay: Inhibition of Ca2+-induced relaxation of mesenteric resistance arteries by antagonists or denervation; set-up: species or system rat
[10] = system: CGRP nerve fiber density of mesenteric resistance arteries; assay: CGRP nerve staining/density after capsaicin-induced sensory denervation; format: in vivo, rat
Experimental: (§2) Pregnant rats are received at 15 days gestation and pups are delivered in a vivarium. On the first and second days of life, each pup is lightly anesthetized with halothane and given s.c. injection of capsaicin (50 mg/kg) or vehicle. The rats are then kept until 7-9 weeks of age at which time they are euthanized and tissue isolated. Sub-acute regional nerve destruction is performed. […] The would is closed and the rats are allowed to recover for three days following which branches leading from the treated vessel segments are harvested for study. For each procedure, two methods are used to verify denervation of the arteries. One is a functional assay in which arteries isolated from sham or denervated rats are electrically stimulated under conditions that selectively activate perivascular sensory dilator nerves; the second is an immunocytochemical approach.
At 8 weeks of age the rats were killed and whole mount preparations of mesenteric resistance arteries were prepared, stained with polyclonal anti-calcitonin gene related peptide (CGRP), which is the primary sensory nerve transmitter, and quantified using stereomorphologic methods (Schmidt-Schoenbein et al., 1977).

perivascular CaR = assay: Perivascular CaR expression after capsaicin-induced denervation; format: in vivo, rat; conditions: KK3 antiserum
Experimental: as §2, with “One is a functional assay in which arteries isolated from sham or denervated rats are electrically stimulated under conditions that selectively activate perivascular sensory dilator nerves; the second is an immunocytochemical approach.” left out
The effect of sensory denervation on perivascular nerve CaR expression is assessed using western blot analysis. […] The membranes are then stained with monoclonal anti-parathyroid CaR (1:7500) and anti-smooth muscle α-actin, then visualized using the enhanced chemiluminescence, and quantified using laser densitometry. The relative expression of CaR in each sample is then assessed as the ratio of the density of CaR staining; α-actin staining. […]
The results have been presented (Mupanomunda et al., 1997). Additional studies quantify the effect of capsaicin-induced denervation on CaR content using western blot analysis.

neurogenic inflammation = conditions: denervation and desensitization by treatment with capsaicin; cited from earlier work

[Ca+2] [Ca^2+]
relationship of 3 mM Ca2+-induced relaxation with CaR content ([1]; 5 μM norepinephrine): positively correlated | relaxation response of precontracted artery to Ca2+ ([1]; 1.5, 2, 3, 5, 7.5 and 10 mmol/L): biphasic relaxation response | effect on renal artery bioassay segment when superfused over the donor segment ([2]; 5 mM Ca2+): caused relaxation | direct effect on bioassay (renal artery) vessel ([2]; 5 mM Ca2+ added directly): without effect; also recorded: absence of response | direct effect on renal artery vessel after recontraction ([2]; Ca2+ 1.5-5.0 mM): no effect | effect on force ([3]; Ca2+ between 0.01 and 0.8 mmol/L): increase in force | steady state force and Ca2+ in ([3]; Ca2+ from 0.8 to 1.6, FIG. 2): decreased steady state force but not steady state Ca^2+in | effect on active stress ([3]; norepinephrine, serotonin and PGF2α contraction, not K+, 0.8 to 1.6 and 1.6 to 2.5 mmol/L): decreased active stress | effect on force ([3]; raising Ca2+ from 0.8 to 1.6 or 1.6 to 2.5 mmol/L): caused relaxation; also recorded: decrease in force and Ca^2+ | steady state intracellular Ca2+ [4]: only decreased significantly in response to 2.5 mmol/L extracellular Ca^2+ | response to low dose norepinephrine [5]: significantly depressed | EC50 ([6]; cumulatively raising extracellular Ca2+ above 1.5 mM, n=12, read-out: ED50 value of Ca2+-induced relaxation): 2.4 ± 0.17 mM | extent of relaxation ([6]; raising extracellular Ca2+ above 1.5 mM): nearly complete relaxation | effect on isolated arteries ([6]; raising extracellular Ca2+ from 1.0 mM to 1.5 mM): relaxes isolated arteries | effect of elevated dietary calcium intake on blood pressure (blood pressure [7]): lowers blood pressure | blood pressure lowering effect of Ca2+ supplementation (blood pressure [8]; clinical trials, overall): small overall blood pressure lowering effect | blood pressure response to Ca2+ supplementation in sub-groups (blood pressure [8]; sub-groups): significant fall in blood pressure | effect on rat tail arteries (rat tail arteries): relaxes rat tail arteries | effect of extracellular Ca2+ on K+-induced contraction (rat aorta): depressed | effect on cremaster arterioles (cremaster arterioles): graded contraction | effect on force generation (mammalian arteries): depress force generation | effect on early force response of the aorta to epinephrine (aorta): suppress the early force response | effect on later steady state response of the aorta (aorta): enhanced

COc1cc(CNC(=O)CCCC/C=C/C(C)C)ccc1O [capsaicin]
effect on Ca2+-induced relaxation ([9]; 20 minutes pre-treatment, 10 μM capsaicin): inhibited/reversed | effect on Ca2+-induced relaxation ([9]; chronic capsaicin-induced sensory denervation): attenuates; also recorded: significantly attenuated | effect on staining for CGRP ([10]; capsaicin denervation): significantly decreases | reduction in CGRP nerve fiber density ([10]; neonatal capsaicin (50 mg/kg s.c.), 8 weeks of age): 40% | effect on staining for perivascular CaR (perivascular CaR): significantly decreases | effect of treatment on neurogenic inflammation (neurogenic inflammation): prevented
